The results in this text go back to EP4455142A1, “NOVEL INHIBITOR OF QPCTL AND/OR QC” (Scenic Immunology B.V., priority 2023, dated 2024).

Values after ≈ are worked out from the molar mass of the structure shown.

The nature of series [1]: Microsomal stability, human (HLM). The format is in vitro ADME. Conditions: liver microsomes, 0.5 mg protein/mL, 1 µM test compound. How it is done: (§1) In order to assess metabolic stability of test compounds, commercially acquired CD-1 mouse liver microsome preparations were incubated in 100 µL at a final concentration of 0.5 mg protein/mL, 1 µM test compound, 0.99% methanol and 0.01% DMSO, after a 10 minute pre-incubation at 37°C and addition of 0.1 volumes 10 U/mL NADPH in 10 mM MgCl2. Reactions were stopped by addition of 300 µL cold acetonitrile containing internal standards at t = 0, 5, 10, 20, 30, and 60 minutes. Samples were submitted to LC-MS/MS analysis subsequently and the slope of linear regression of time versus In(% Remaining concentration) was derived to calculate t½ as t½= In(2) /(-Slope). Then Clint(mic) and Clint(liver) were calculated as follows: CLint(mk) = (0.693)/(In vitro T1/2) · (1)/(mg/mL microsomal protein in reaction system) [formula] CLint(liver) = CLint(mic) · (mg microsomes)/(g liver) · (g liver)/(kg body weight) [formula]
(§2) The same procedure was performed for human microsomes, SD rat microsomes and (beagle) dog microsomes.
Where 45 mg microsomal protein/g liver and 20 g liver/kg human bodyweight were used as standardized parameters for human microsomes.

The nature of series [2]: Microsomal stability, rat (RLM). The format is in vitro ADME. Conditions: liver microsomes; SD rat microsomes, 0.5 mg protein/mL, 1 µM test compound. The protocol:
as §1, §2
Where 45 mg microsomal protein/g liver and 40 g liver/kg rat bodyweight were used as standardized parameters for rat microsomes.

The nature of series [3]: Kinetic solubility. It counts as physicochemical. The conditions noted are these: aqueous buffer; 50 mM phosphate buffer (pH 7.4), 24 hours at room temperature. How it is done:
To assess the solubility of test compounds 10 µL of a 10 mM solution in DMSO was added to the lower chamber of a whatman miniuniprep (PTFE Filter Media with Polypropylene Housing) vial. 490 µL of 50 mM phosphate buffer (pH 7.4) was added to the lower chamber, the samples were vortexed for at least two minutes and then shaken on a shaker for 24 hours at room temperature at the speed of 880 rpm. The samples were then centrifuged for 20 minutes at 4000 rpm, compressed and the filtrates were injected into a HPLC-UV and LC-MS/MS system to calculate the concentration compared to the standard curve using a ACQUITY UPLC BEH C18 1.7 µm 2.1 * 50 mm column.

Series [4] can be described thus: CACO-2-based cell-permeation and efflux. The format is in vitro ADME. Conditions: human, 2 µM compound, pH 7.40. How it is done: CACO-2 (ATCC, Manassas, VA, USA) monolayers on polyethylene membranes in 96-well insert plates were incubated for 2 hours in 5% C02, 37°C with 2 µM compound tested bidirectionally in duplicate using HBSS with 10 mM HEPES at pH 7.40 ±0.05 as transport buffer. Final DMSO Concentrations were adjusted to less than 1%. All samples were mixed with acetonitrile containing internal standard and centrifuged at 3220 x g for 10 minutes. Subsequently, 100 µL supernatant solution was diluted with 100 µL distilled water for LC/MS/MS analysis. Lucifer yellow rejection assays were applied after the transport assay to ensure CACO-2 cell monolayer integrity.
The apparent permeability coefficient Papp (cm/s) was calculated using the equation: Papp = (dCr/dt) × Vr/(A×CO) [formula] where dCr/dt is the cumulative concentration of compound in the receiver chamber as a function of time (µM/s); Vr is the solution volume in the receiver chamber (0.075 mL on the apical side, 0.25 mL on the basolateral side); A is the surface area for the transport, i.e., 0.0804 cm^2 or the area of the monolayer; CO is the initial concentration in the donor chamber (µM).

Series [5] in a line: Microsomal stability, mouse (MLM). It counts as in vitro ADME, CD-1 mouse. The conditions noted are these: mouse liver microsomes, 0.5 mg protein/mL, 1 µM test compound. How it is done:
as §1
Where 45 mg microsomal protein/g liver and 88 g liver/kg mouse bodyweight were used as standardized parameters for mouse microsomes.

Series [6] has as its target T1, recombinant QC enzyme (Homo sapiens, UniProt Q16769).
T1 construct: bacterial expression of residues 33-361 of uniprot ID Q16769, fused to a His tag; His tag (cleaved yes); made in house
As to the kind of experiment: Assay 2 - QC potency, fluorescent enzymatic assay (H-Gln-AMC, coupled pGAPase detection). The format is biochemical. The conditions noted are these: 1 hour at 37°C. The protocol:
After scale-up, expression and lysis, protein was purified by Ni-NTA IMAC, dialysed in the presence of Factor Xa, further purified by Ni-NTA reverse IMAC and finally filtrated for size on a Superdex 200 16/60 column. Final protein was concentrated using a spin concentrator at 10 kDa molecular weight cut-off and formulated in 150 mM NaCl, 50 mM Tris-HCl, 50% Glycerol, pH 8.0.
(§3) Pyroglutamylation was measured by conversion of glutamine-4-amino-7-methylcoumarine (H-Gln-AMC, Bachem) to pyroglutamyl-AMC, which is subsequently a specific substrate for pyroglutamylaminopeptidase (pGAPase, Qiagen), releasing free AMC which can be fluorescently detected. For a typical inhibition assay, 7.5 µL aliquots of threefold dilutions of test compound in 50 mM Tris pH8 buffer were plated in 384-well plates. 15 µL 20 µM h-Gln-AMC (diluted from a 40 mM stock dissolved in 25 mM HEPES using 50 mM Tris-HCl pH 8.0) was added to each well. Finally, 7.5 µL, 3 ng/µL recombinant QC enzyme was added and the reaction mixture was incubated for 1 hour at 37°C. A 5 minute incubation at 98°C was then performed to denature the QC enzyme and stop the reaction.
25 µL of the pyroglutamylation reaction mixture was transferred into an empty plate and to that, 25 µL of the pGAPase enzyme solution was added. Plates were then incubated for 25 minutes at room temperature before fluorescence readings were taken on an Envision2 plate reader with excitation set at 380 nm and emission at 450 nm.
Controls were taken along containing pyroglutamylated-AMC (Bachem, dissolved at 10 mM in DMSO) instead of H-Gln-AMC to control for pGAPase inhibition.
(§4) IC50 values are calculated using non-linear regression analysis with GraphPad Prism software.

The target in series [7] is T2, human isoQC (Homo sapiens, UniProt Q9NXS2).
T2 construct: The Golgi luminal, enzymatically active region of human isoQC (S53-L382; see, e.g., Huang et al., 2011); GST (with enterokinase site) (N, cleaved yes); made in house; host or cells: E. coli
As to the kind of experiment: Assay 1 - isoQC potency, fluorescent enzymatic assay (H-Gln-AMC, coupled pGAPase detection). It counts as biochemical. Conditions: recombinant isoQC, 1 hour at 37°C.
From the text: The Golgi luminal, enzymatically active region of human isoQC (S53-L382; see, e.g., Huang et al., 2011) was obtained by expression in E. coli of an N-terminally GST Enterokinase and C-terminally 6xHis tagged construct in the pET41(+) vector and subsequent purification using Ni-NTA IMAC. Enterokinase digestion ensued, followed by another Ni-NTA IMAC purification, Superdex75 based size exclusion and finally a spin concentration using a 10 kDa molecular weight cutoff. The final protein is formulated in 50 mM Tris-HCl, 150 mM NaCl, 50% Glycerol, pH 7.8.
as §3, with “in 50mM” for “in 50 mM”, “µM hGln-AMC” for “µM h-Gln-AMC”, “Tris-HCl 25” for “Tris-HCl”, “recombinant isoQC” for “recombinant QC”, “the isoQC” for “the QC”
To detect the amount of pyroglutamyl-AMC formed, a 0.125 U/mL pGAPase enzyme diluted in 50 mM Tris-HCl pH 8.0 containing 10 mM dithiothreitol (DTT) solution was prepared. 25 µL of the pyroglutamylation reaction mixture was transferred into an empty plate and to that, 25 µL of the pGAPase enzyme solution was added. Plates were then incubated for 25 minutes at room temperature before fluorescence readings were taken on an Envision2 plate reader with excitation set at 380 nm and emission at 450 nm. DMSO concentrations during the assay never exceeded 1% and activities were compared to controls containing only the same amount of DMSO and no test compound. Controls were taken along containing pyroglutamylated-AMC (Bachem, dissolved at 10 mM in DMSO) instead of H-Gln-AMC to control for pGAPase inhibition.
as §4

Series [8] is described as follows: Microsomal stability, dog (DLM). The format is in vitro ADME. Conditions: liver microsomes; (beagle) dog microsomes, 0.5 mg protein/mL, 1 µM test compound. The protocol: as §1, §2
Where 45 mg microsomal protein/g liver and 32 g liver/kg dog bodyweight were used as standardized parameters for […].

T2 sequence (Q9NXS2 53-382): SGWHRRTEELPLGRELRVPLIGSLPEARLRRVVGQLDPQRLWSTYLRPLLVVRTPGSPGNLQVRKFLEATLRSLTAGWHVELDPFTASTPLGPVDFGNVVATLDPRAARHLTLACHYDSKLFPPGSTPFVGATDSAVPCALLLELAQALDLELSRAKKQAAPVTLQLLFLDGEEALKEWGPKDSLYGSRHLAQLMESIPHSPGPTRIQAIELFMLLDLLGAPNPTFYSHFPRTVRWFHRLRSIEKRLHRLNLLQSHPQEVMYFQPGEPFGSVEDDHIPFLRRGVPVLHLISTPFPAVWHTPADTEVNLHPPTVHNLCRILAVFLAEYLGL
T1 sequence (Q16769 33-361): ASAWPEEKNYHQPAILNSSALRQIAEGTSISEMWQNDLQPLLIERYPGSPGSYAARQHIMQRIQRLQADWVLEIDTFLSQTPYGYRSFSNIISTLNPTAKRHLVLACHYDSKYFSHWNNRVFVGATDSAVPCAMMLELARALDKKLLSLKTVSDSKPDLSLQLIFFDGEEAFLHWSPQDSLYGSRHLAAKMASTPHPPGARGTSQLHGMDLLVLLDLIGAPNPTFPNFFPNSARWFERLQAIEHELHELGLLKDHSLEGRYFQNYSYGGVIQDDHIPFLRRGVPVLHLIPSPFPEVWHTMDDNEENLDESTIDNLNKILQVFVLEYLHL

For the compound `O=C1OCC(c2cc(F)cc(C(F)(F)F)c2)N1c1ccc2[nH]cnc2c1` (single isomer, unassigned) [(17)-ent2], the CLint scaled at 1 µM was less than 8.6 mL/min/kg in series [1], 49 mL/min/kg in series [2], 182 mL/min/kg in series [5] and less than 13.8 mL/min/kg in series [8]. The solubility at 24 h in series [3] came to 39 µM (≈ 14.2 µg/mL). The compound further returned a Papp A→B at 2 h, 2 µM in series [4] (Caco-2, pH 7.4, A2B) of 1.5 ×10⁻⁶ cm/s. The compound further came in with a Papp B→A at 2 h, 2 µM in series [4] (Caco-2, pH 7.4, B2A) of 36.8 ×10⁻⁶ cm/s. Further, the IC50 in series [6] was determined as 1080 nM; in series [7] it was 632 nM.
